Laboratory results reported in patent publication US10501460B2, “Heterocyclic compounds and uses thereof” (Plexxikon Inc., priority 2013, dated 2019).

Assays:
[1] = biological target: T1, BRD4-BD1 (44-164) (Homo sapiens, UniProt O60885); test: Alphascreen binding assay BRD4-BD1 (BRD4 biochemical inhibitory activity); details: read-out: Biochemical activity (IC50 μM) BRD4(1) H4
T1 construct: BRD4-BD1 (44-164); made in house; host or cells: E. coli BL21-CodonPlus (DE3)
Outline: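 His-tagged human BRD4-BD1 (44-164), E. coli-expressed, incubated 1 h at room temperature with compound and biotinylated tetra-acetylated histone H4 (1-21) peptide in HEPES pH 7.5 buffer with NaCl, BSA, Triton X-100 and DTT. AlphaScreen nickel-chelate/streptavidin beads (7.5 μg/ml final) added, read after 30 min. pIC50 from four-parameter fit of control-normalized signal.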

[2] = tested on: MV-4-11; test: Oncology cell growth assay MV-4-11 (CellTiter Glo, 72 hours); assay type: cell-based; details: Homo sapiens, MV4-11, 72 h; MV-4-11 cell growth inhibitory activity, 3d
Outline: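 Growth read by CellTiter Glo luminescence after 72 h compound exposure of MV-4-11 AML cells (MLL-AF4), using 8-point 1:3 series to 10 μM final in 0.2% DMSO. Data normalized to DMSO wells, four-parameter fit yields pIC50.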

[3] = tested on: bromodomain; test: Bromodomain cell assays of Example 40 (at least one of them); assay type: cell-based; details: in at least one of the bromodomain cell assays described in Example 40
Outline: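 Growth inhibition: 3000 MV-4-11, MOLM-13, MM.1S or neuroblastoma cells/well got an 8-point 1:3 series from 10 μM top (0.2% DMSO) for 72 h, then CellTiter-Glo luminescence. Myc reporter: MV-4-11 with E-box firefly luciferase, 24 h exposure, One-Glo luminescence plus CellTiter-Fluo cell count. pIC50 from four-parameter fit.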

| Structure (SMILES) | IC50 [1] | IC50 [2] | IC50 [3] |
| --- | --- | --- | --- |
| [2H]C([2H])([2H])n1cc(CC2CCN(C(=O)OCc3ccccc3)CC2)c2cc(-c3c(C)noc3C)cnc21 [P-0092, benzyl 4-[[5-(3,5-dimethylisoxazol-4-yl)-1-(trideuteriomethyl)pyrrolo[2,3-b]pyridin-3-yl]methyl]piperidine-1-carboxylate] | ≤ 1 µM | 1 to 10 µM | < 10 µM |
| Cc1noc(C)c1-c1cnc2ccn(S(=O)(=O)c3cnn(C(F)F)c3)c2c1 [P-0054, 4-[1-[1-(difluoromethyl)pyrazol-4-yl]sulfonylpyrrolo[3,2-b]pyridin-6-yl]-3,5-dimethyl-isoxazole] | 1 to 10 µM | 1 to 10 µM | < 10 µM |
| CCCCC(c1cn(C)c2ncc(-c3c(C)noc3C)cc12)C1CCC(F)(F)CC1 (stereo not drawn) [P-0109, 4-[3-[1-(4,4-difluorocyclohexyl)pentyl]-1-methyl-pyrrolo[2,3-b]pyridin-5-yl]-3,5-dimethyl-isoxazole] | ≤ 1 µM | 1 to 10 µM | < 10 µM |
| Cc1noc(C)c1-c1cnc2c(c1)c(Sc1ccccc1)cn2C1CCOC1 (stereo not drawn) [P-0180, 3,5-dimethyl-4-(3-phenylsulfanyl-1-tetrahydrofuran-3-yl-pyrrolo[2,3-b]pyridin-5-yl)isoxazole] | 1 to 10 µM | 1 to 10 µM | < 10 µM |
| Cc1noc(C)c1-c1cnc2ccn(S(=O)(=O)c3ccc(OC(C)C)cc3)c2c1 [P-0033, 4-[1-(4-isopropoxyphenyl)sulfonylpyrrolo[3,2-b]pyridin-6-yl]-3,5-dimethyl-isoxazole] | 1 to 10 µM | 1 to 10 µM | < 10 µM |
